Data reported in PMC12261233, “Photoactivatable Cyclometalated Ir(III) Compound Penetrates the Blood-Brain Barrier in 3D Spheroidal and Advanced 3D Organoid Models of Inherently Resistant and Aggressive Brain Tumors” (ACS Pharmacology & Translational Science, 2025).
Where two headings read alike, the source gives them in different places.

Legend:
Format in all cases: cell-based, human
U87MG cells = assay: Antiproliferative activity, 2D monolayer, SRB assay; conditions: for PI (phototoxicity index) 2D: IC50 dark / IC50 420 nm irradiated; for IC50: U87MG 2D monolayer, 90 min treatment, SRB
Method: The antiproliferative activity of the compounds under investigation was assessed using the Sulforhodamine B (SRB) assay on both 2D cell monolayers and 3D spheroids. For the 2D cell monolayer assay, cells were seeded in 96-well tissue culture plates at a density of 3 × 10^3 cells/well in 100 μL of culture medium. Following overnight incubation in a humidified CO2 incubator, the medium was replaced, and the cells were treated with the investigated compounds in a final volume of 200 μL/well of Earle’s Balanced Salt Solution (EBSS). The cells were then exposed to the tested compounds for 1.5 h under dark conditions (5% CO2, 37 °C) and subsequently irradiated with blue light (420 nm) for 30 min at an intensity of 58 W/m^2. After treatment, the samples were washed with Phosphate-Buffered Saline (PBS) and replenished with 200 μL of culture medium. Following an additional 70-h incubation, the cells were washed with PBS, fixed with trichloroacetic acid at 4 °C for 1 h, and stained with 0.4% SRB dye for 30 min. The stained cells were dissolved with Tris (10 mM), and the cell viability was assessed by measuring the absorbance at 570 nm using an Absorbance Reader (SPARK TECAN, SCHOELLER). […] After the 72-h spheroid formation period, the samples were treated and irradiated as described for the 2D cultures. […] The luminescence signal was detected using the plate reader SPARK (Tecan, Manedorf, Switzerland), and the IC50 values were calculated from the survival curves. All experiments were conducted in triplicate to ensure the reliability and reproducibility of the results. Furthermore, the concentrations of the compounds in the medium during the treatment were verified using Flame Atomic Absorption Spectroscopy (FAAS) or Inductively Coupled Plasma Mass Spectrometry (ICP-MS). […]
drug-free incubation. c IC50 values were determined by SRB assay. d IC50 values were determined by CellTiter-Glo® 3D chemiluminescent assay. e PI - phototoxicity index was calculated as the ratio of IC50 determined under the dark conditions / IC50 determined for 420 […]
models under irradiation conditions.

U87MG spheroids [1] = assay: Calcein AM/PPI staining of Matrigel-embedded spheroids after single-spheroid 405 nm irradiation (confocal); conditions: for change in calcein AM/PPI ratio with blue light irradiation: 405 nm irradiated; for change in calcein AM/PPI ratio under dark conditions: versus control
Method: Spheroids were treated with iridium complexes at IC50 concentrations (Table S4) for 3 h, followed by 405 nm laser irradiation for 60 s. After 24 h in a drug-free medium, spheroids were stained for analysis. Significant differences in live and dead cell counts were observed between irradiated and nonirradiated samples for Ir3 and Ir4, with morphological disruptions noted in treated spheroids, including reduced diameters and metabolically active cells concentrated in the core (Figure , panel III, inserts 2* and 4*).
Matrigel-embedded spheroids were treated for 3 h with the investigated compounds at concentrations corresponding to the IC50 determined for 3D cultures. Then, the samples were irradiated for 60 s with 405 nm laser light (1 mW) and placed in a drug-free, 3D forming medium for an additional 21 h. Then, treated and irradiated (or dark incubated controls) were stained with Hoechst 33258 (20 μg mL^–1), Calcein AM (2 μM), and PPI (8 μg mL^–1) for 2 h. Samples were sequentially imaged on a confocal microscope Leica CM SP5 (Leica, Germany), in 10 z-stack scans (20 μm each). Images were processed using ImageJ software. Fluorescence intensities were assessed for the maximal projections of the z-stacks, and the corresponding Calcein AM/PPI ratio was calculated. Hoechst dye was used to accurately define the Region of Interest (ROI) mask and analyze fluorescence intensities. Three independent experiments were carried out to ensure the reliability and reproducibility of the results. The representative images are shown.

U87MG spheroids [2] = assay: Distribution of iridium compounds in Matrigel-embedded spheroids (confocal); conditions: 5 μM, 3 h
Method: Spheroids derived from U87MG cells were encapsulated in a Matrigel matrix. The U87MG cells were incubated for 72 h under 3D conditions using ULA 96-well U-shaped plates (Corning) and cultured in DMEM-F12 ham medium supplemented with growth factors conducive to spheroid formation: 2% B27 (Thermo Fisher Scientific Inc., MA, USA), epidermal growth factor (EGF; Sigma-Aldrich, Germany, 20 ng mL^–1), fibroblast growth factor (FGF2; Sigma-Aldrich, Germany, 10 ng mL^–1), and BSA (0.15%). Following the 72-h spheroid formation phase, the samples were embedded in a Matrigel matrix and allowed to gel completely (30 min). Afterward, the spheroids were further cultured for 24 h in confocal Petri dishes (Mattek) with 3D forming medium. Subsequently, the samples were exposed to 5 μM of the tested compounds 3, 4, and 5 for 3 h. The samples were then rinsed, transferred to a fresh 3D forming medium, and visualized using a confocal microscope (Leica CM SP8 SMD, Leica, Germany). Imaging was conducted in defined Z-stacks with a 20 μm step, and fluorescence intensities were captured and analyzed using ImageJ software.

[3] = dark, 70 h drug-free incubation, read-out: IC50 2D Dark
[4] = 30 min blue light 420 nm 58 W m-2, 70 h drug-free, read-out: IC50 2D Irradiated

Compound	PI (phototoxicity index) 2D (U87MG cells)	IC50 (U87MG cells; [3])	IC50 (U87MG cells; [4])	change in calcein AM/PPI ratio with blue light irradiation (U87MG spheroids [1])	change in calcein AM/PPI ratio under dark conditions (U87MG spheroids [1])	distribution within spheroid (U87MG spheroids [2])	IC50 (U87MG cells; Homo sapiens, U-87 MG, dark, 70 h drug-free incubation, read-out: IC50 2D Dark)
Cc1ccc(-c2cc3[n+]4c(c2)-c2cccc[n+]2[Ir-3]42([Cl])([c]4cc5ccccc5cc4-c4n(Cc5ccc(C(F)(F)F)cc5)c5ccccc5[n+]42)[n+]2ccccc2-3)cc1.F[P-](F)(F)(F)(F)F [Ir3]	45	30.4 ± 4.3 µM	0.67 ± 0.08 µM	substantial decrease	insignificant changes	primarily localized in the outer regions of the spheroids	–
CCCCn1c2[n+](c3cc(C(=O)OC)ccc31)[Ir-3]13([Cl])([c]4ccccc4-2)[n+]2ccccc2-c2cc(-c4ccc(C)cc4)cc([n+]21)-c1cccc[n+]13.F[P-](F)(F)(F)(F)F [Ir4]	41	21.3 ± 1.4 µM	0.52 ± 0.08 µM	substantial decrease	significant decrease	most uniform distribution	–
Cc1ccc(-c2cc3[n+]4c(c2)-c2cccc[n+]2[Ir-3]42([Cl])([c]4c(ccc5c4OCO5)-c4n(Cc5ccc(C(F)(F)F)cc5)c5ccccc5[n+]42)[n+]2ccccc2-3)cc1.F[P-](F)(F)(F)(F)F [Ir5]	60	25.3 ± 2.1 µM	0.42 ± 0.03 µM	substantial decrease	insignificant changes	primarily localized in the outer regions of the spheroids	–
Cn1nnc2c(C(N)=O)ncn2c1=O [Temozolomide, reference compound]	–	–	–	–	–	–	≥ 100 µM
